# Patent US8551963B2, “Imidazolothiazole compounds and methods of use thereof” (Ambit Biosciences Corporation, priority 2008, dated 2013)
# Where two headings read alike, the source gives them in different places.
# Experiments:
# CYP3A4 [1] = target: T1, CYP3A4 (Homo sapiens (Human), UniProt P08684); assay: Inhibitory constant KI in human liver microsomes, CYP3A4; assay type: in vitro ADME; details: CYP3A4, global non-linear regression
# Procedure: (§1) A 2 mM stock of Compound I-1 was prepared in acetonitrile (ACN) and serially diluted 2-fold from 2000 μM to 15.63 μM in ACN. […] Individual human liver microsome preparations containing the substrate were then incubated with Compound I-1 (final concentration range 40 μM to 0.31 μM of Compound I-1) for a final incubation concentration of 0.5 mg/mL microsome, 75 mM KPO4, 6.5 mM MgCl2, 1 mM NADPH and 2% acetonitrile (ACN). The samples were incubated in a 37° C. shaking water bath for 20 minutes then quenched with ACN:water (75:25) containing internal standards propranolol at 0.3 ng/mL and cortisone at 0.3 ng/mL. After brief mixing, the plate was centrifuged and the supernate removed for analysis by LC/MS/MS (API 4000 Qtrap) for formation of 6-hydroxy-testosterone (CYP3A4), 4-hydroxy-mephenyloin (CYP2C19) or hydroxy-taxol (CYP2C8). The data was analyzed using global non-linear regression software (GraphPad Prism) and the overall fit of the data (R^2) was used to determine if Compound I-1 was a competitive, non-competitive, or uncompetitive inhibitor. In addition the data was plotted as a Lineweaver-Burke graph (1/V versus 1/S, where V is the […] and S is the substrate concentration) for each inhibitor concentration. Based on the location of convergence (competitive and non-competitive) or non convergence (uncompetitive) of the plots at each inhibitor concentration, the type of inhibition was determined.
# (§2) Global non-linear regression allows analysis of all the individual inhibitor curves simultaneously and determines the best fit value for shared parameters between the data sets, in this case KI (or KI′). The results of the global nonlinear analysis of Compound I-1 inhibition of the CYP450 isoforms 3A4, 2C19 and 2C8 are shown in Table 12.
# CYP2C8 = CYP2C8 (Homo sapiens (Human), UniProt P10632); assay: Inhibitory constant KI in human liver microsomes, CYP2C8; assay type: in vitro ADME; details: CYP2C8, global non-linear regression
# Procedure: as §1, §2
# [2] = Pharmacokinetic study in rats, intravenous and oral; assay type: in vivo; details: rat
# Procedure: Rats were dosed either intravenously at 1 mg/kg dose or orally at 10 mg/kg dose with Compound I-1. Blood samples were collected over a 24 hour time-course. The plasma was analyzed for Compound I-1 and the pharmacokinetic parameters were determined.
# Pre-catheterized (jugular vein), male Sprague-Dawley rats (230-300 g) obtained from Charles River, Hollister, Calif., were acclimated at the vivarium of Rabbit and Rodent Diagnostic Associates (San Diego, Calif.) for at least three days following delivery and prior to entering a study. Rats were fasted overnight before intravenous or oral dosing. For intravenous dosing, Compound I-1 was dissolved in a 3:1 PEG400:H2O (Water For Injection) solution and administered at a dose of 1 mg/kg. For oral dosing, Compound I-1 was dissolved in a 22% hydroxypropyl-β-cyclodextrin (HPBCD) solution and administered at a dose of 10 mg/kg. Blood was collected at 5 (IV only), 15, 30 min, 1, 2, 4, 6, and 24 hr postdose using K3EDTA as anticoagulant and plasma was harvested for the analysis of Compound I-1.
# Plasma samples, calibration standards and quality control samples (20 μL) were extracted with six volumes of acetonitrile containing an internal standard (25 ng/mL) and analyzed using LC-MS/MS analysis (API 3200). Sample separation was achieved on a Zorbax SB C8 column (5 μm, 4.6×50 mm) at a flow rate of 1.6 mL/min. The gradient program was from 5-95% acetonitrile in 0.05% formic acid over one minute. The mass transition from m/z 577.18 to 421.10 was monitored for Compound I-1. The internal standard mass transitions monitored were 483.0 to 317.2.
# Pharmacokinetic parameters of Compound I-1 were calculated based on the plasma concentration-time profiles of each animal using the noncompartmental models in WinNonlin v5.2 (Pharsight, Mountain View, Calif.).
# CYP2C9 = CYP2C9 (Homo sapiens (Human), UniProt P11712); assay: Cyp enzyme inhibition assay in human liver microsomes, CYP2C9; assay type: in vitro ADME; details: CYP2C9, substrate Diclofenac
# Procedure: (§3) The ability of the compound I-1 to inhibit human metabolizing enzymes CYP3A4, CYP2C9, […], CYP2C19 and CYP1A2, was assessed using those enzymes found collectively in human liver microsomes. The test compound I-1 was prepared as a solution in DMSO or acetonitrile and plated in duplicate rows of a 96-well plate (Nunc) for a final assay concentration of 40 μM in 0.2% DMSO (or 2% acetonitrile) in the first column and serially diluted two-fold going down the row. A known selective inhibitor of a given CYP enzyme listed in Table 8 was selected as the appropriate positive control. For each CYP enzyme inhibition assay, an appropriate enzyme-substrate mixture was prepared to afford a final assay concentration of 75 mM KPO4/pH 7.4, 6.5 mM MgCl2, 0.25 mg/mL pooled male and female human liver microsome (CellzDirect lot HMMC-PL020) with the amounts of the appropriate substrate for each CYP enzyme assay given in Table 8. The enzyme-substrate mixture was added to columns 1 through 10 and column 11 served as a negative control with enzyme solution lacking substrate. A solution of NADPH (Calbiochem) was then added to all rows except for one where NADPH would be added after the incubation period, in order to detect NADPH-independent non-CYP-mediated metabolism. The plate was briefly vortexed and left to shake in a 37° C. water bath for 20 minutes. […]
# CYP3A4 [3] = target: T1, CYP3A4; assay: Cyp enzyme inhibition assay in human liver microsomes, CYP3A4; assay type: in vitro ADME; details: CYP3A4, substrate testosterone
# Procedure: as §3
# [4] = read-out: Best Fit KI, Competitive
# [5] = read-out: Best Fit KI, Non-competitive
# [6] = read-out: Best Fit KI′, Uncompetitive
# [7] = male, Sprague-Dawley, plasma, intravenous, 1 mg/kg
# [8] = male, Sprague-Dawley, plasma, oral, 10 mg/kg
# Sequence of CYP2C8 (P10632 whole entry): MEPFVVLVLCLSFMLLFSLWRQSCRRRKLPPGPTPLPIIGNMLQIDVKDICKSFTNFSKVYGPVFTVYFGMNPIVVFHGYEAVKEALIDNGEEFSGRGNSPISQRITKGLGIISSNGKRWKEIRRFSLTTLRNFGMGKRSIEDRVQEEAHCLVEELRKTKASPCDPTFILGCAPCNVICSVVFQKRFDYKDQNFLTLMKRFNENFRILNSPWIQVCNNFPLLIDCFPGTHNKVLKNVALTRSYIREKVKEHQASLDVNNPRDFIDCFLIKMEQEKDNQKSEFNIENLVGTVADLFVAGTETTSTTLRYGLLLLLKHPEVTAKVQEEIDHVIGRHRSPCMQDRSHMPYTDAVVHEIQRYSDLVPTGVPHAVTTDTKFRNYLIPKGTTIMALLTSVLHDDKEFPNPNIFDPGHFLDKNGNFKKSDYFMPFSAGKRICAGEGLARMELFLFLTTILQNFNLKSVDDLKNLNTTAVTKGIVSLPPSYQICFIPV
# T1 sequence (P08684 whole entry): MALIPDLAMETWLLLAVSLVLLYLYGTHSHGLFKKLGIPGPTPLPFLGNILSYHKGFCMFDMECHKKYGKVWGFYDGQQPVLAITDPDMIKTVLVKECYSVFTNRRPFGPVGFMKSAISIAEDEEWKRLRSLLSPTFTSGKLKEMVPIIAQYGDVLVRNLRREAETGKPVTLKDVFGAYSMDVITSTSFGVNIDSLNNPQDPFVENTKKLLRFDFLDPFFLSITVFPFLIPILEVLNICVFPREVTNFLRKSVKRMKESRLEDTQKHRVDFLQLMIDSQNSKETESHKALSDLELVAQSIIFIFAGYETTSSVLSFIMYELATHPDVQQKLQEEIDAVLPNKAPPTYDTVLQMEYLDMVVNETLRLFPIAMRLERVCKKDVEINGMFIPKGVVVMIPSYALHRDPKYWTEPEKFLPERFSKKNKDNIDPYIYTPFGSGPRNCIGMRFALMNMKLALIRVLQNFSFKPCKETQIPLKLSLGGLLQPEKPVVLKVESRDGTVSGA
# Sequence of CYP2C9 (P11712 whole entry): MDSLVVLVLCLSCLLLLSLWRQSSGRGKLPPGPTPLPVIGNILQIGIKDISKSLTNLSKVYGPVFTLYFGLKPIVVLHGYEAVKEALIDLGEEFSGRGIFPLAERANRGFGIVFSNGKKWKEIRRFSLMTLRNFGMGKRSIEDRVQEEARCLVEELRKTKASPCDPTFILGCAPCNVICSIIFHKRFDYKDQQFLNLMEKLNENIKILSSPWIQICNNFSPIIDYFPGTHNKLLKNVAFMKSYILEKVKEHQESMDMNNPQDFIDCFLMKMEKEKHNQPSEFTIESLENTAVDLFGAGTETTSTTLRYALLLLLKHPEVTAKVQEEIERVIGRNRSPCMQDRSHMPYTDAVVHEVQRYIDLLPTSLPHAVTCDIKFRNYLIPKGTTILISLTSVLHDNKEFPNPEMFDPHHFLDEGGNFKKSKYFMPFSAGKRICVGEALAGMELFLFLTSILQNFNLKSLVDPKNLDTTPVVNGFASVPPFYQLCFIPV
structure (smiles),measurement,setting,value
"CC(C)(CO)c1cc(NC(=O)Nc2ccc(-c3cn4c(n3)sc3cc(OCCN5CCOCC5)ccc34)cc2)no1 [Compound I-1, 1-[5-(2-hydroxy-1,1-dimethyl-ethyl)-isoxazol-3-yl]-3-{4-[7-(2-morpholin-4-yl-ethoxy)-benzo[d]imidazo[2,1-b]thiazol-2-yl]-phenyl}-urea]",Ki,CYP3A4 [1]; [4],13.1 µM
same,Ki,CYP3A4 [1]; [5],48.9 µM
same,Ki,CYP3A4 [1]; [6],36 µM
same,Ki,CYP2C8; [4],22.1 µM
same,Ki,CYP2C8; [5],60.8 µM
same,Ki,CYP2C8; [6],37.7 µM
same,AUC(0-inf),[2]; [7],3290 nM·h
same,Vd,[2]; [7],1.34 L/kg
same,clearance,[2]; [7],0.53 L/h/kg
same,half-life,[2]; [7],3.4 h
same,AUC(0-inf),[2]; [8],2270 nM·h
same,Cmax,[2]; [8],0.36 µM
same,Tmax,[2]; [8],1.2 h
same,half-life,[2]; [8],3.7 h
same,bioavailability,"[2]; male, Sprague-Dawley, plasma, oral, 10 mg/kg, calculated with the dose normalized AUC0-inf IV data, read-out: F (absolute bioavailability)",6.9%
same,T1/2,"[2]; intravenous, 1 mg/kg",3.4 h
same,IC50,CYP2C9,> 40 µM
same,IC50,CYP3A4 [3],> 40 µM
